Results taken from patent publication US11702392B2, “Pyrimidinone derivatives as SHP2 antagonists” (MERCK PATENT GMBH, priority 2019, dated 2023).
Entries after “also recorded” stand apart in the source; their conditions may differ.

Tests used:
[1] = Pharmacokinetics in female CD1 mice (oral / intravenous); format: in vivo; conditions: mouse; for AUC ng/ml*h (normalized to 1 mp/k) / Cmax ng/mL (normalized to 1 mg/k): normalized to 1 mg/kg; for Fz: oral
Protocol: Female CD1 mice (N=3) received a single oral (gavage) or a single intravenous (bolus) injection of compound. […] Consecutive blood samples were taken sub-lingually under isofluorane inhalation from animals after 0.083 (IV), 0.25, 0.5, 1, 2, 4, 6 and 24 h and were further processed to obtain plasma. Samples were protein precipitated and analysed by LC/MS/MS.

U87-MG xenografts = experiment: U87-MG xenograft (PTEN LOF glioblastoma); format: in vivo, mouse; conditions: 50 mg/kg QD oral gavage, CD-1 nude mice
Description: CD-1 nude mice were inoculated with 10 million U87-MG cells.

MiaPaCa-2 xenografts = format: in vivo, mouse; conditions: 50 or 100 mg/kg QD oral gavage, H2D Rag2 mice
Description: H2D Rag2 mice were inoculated with 3 million MiaPaCa-2 cells.

[2] = target: auto-activated mutant protein SHP2 E76K (Homo sapiens (Human), UniProt Q06124, E76K); experiment: SHP2 E76K active mutant biochemical assay with and without activating peptide
Protocol: The inhibition of SHP2 by compounds of the invention was monitored using the surrogate substrate DiFMUP after protein activation by a peptide bearing two appropriately spaced phosphotyrosine. Full length SHP2 protein (Recombinant HumanSHP-2, E. coli derived Ser2Arg593, N-terminal 6His tag from R&D systems; 0.0.24 nM) was incubated with activating peptide, IRSI_2pY (New England Peptide, 140 nM) and DiFMUP (molecular probes, 80 uM) at RT in buffer (HEPES pH 7.2 60 mM, DDT 5 mM, KCl 75 mM, NaCl 75 mM, EDTA 1 mM, Tween 20 0.05%) in presence of compound (10 concentrations range, top concentration 50 μM) for 60 min. The generation of the DiFMU product by activated SHP2 was monitored through Fluorescence measurement with a PerkinElmer Envision reader. The inhibitor dose response curves were analyzed with Genedata Screener.

HPAF-2 xenografts = conditions: 50 mg/kg compound 23B or 60 mg/kg RMC-4550 QD oral gavage, CB17.SCID mice
EBC-1 xenografts = experiment: EBC-1 xenograft (cMET amplified non-small cell lung cancer); format: in vivo; conditions: 100 mg/kg QD oral gavage, CD-1 nude mice
Description: CD-1 nude mice were inoculated with 5 million EBC-1 cells.

KYSE-520 xenografts = experiment: Kyse-520 xenograft (EGFR amplified esophageal cancer); conditions: H2D Rag2 mice
Description: H2D Rag2 mice were inoculated with 5 million KYSE-520 cells mixed with matrigel.
In vivo efficacy of compound 74a in an EGFR amplified setting was investigated in Kyse-520 xenografts. H2D Rag2 mice were inoculated with 5 million KYSE-520 cells mixed with matrigel.

[3] = target: Full length SHP2 protein (Recombinant Human SHP-2) (Homo sapiens (Human), UniProt Q06124); experiment: SHP2 biochemical assay (DiFMUP substrate, activating peptide IRS1_2pY); conditions: activating peptide IRS1_2pY 140 nM, 60 min
Protocol: The inhibition of SHP2 by compounds of the invention was monitored using the surrogate substrate DiFMUP after protein activation by a peptide bearing two appropriately spaced phosphotyrosine. […] The generation of the DiFMU product by activated SHP2 was monitored through Fluorescence measurement with a PerkinElmer Envision reader. The inhibitor dose response curves were analyzed with Genedata Screener.

[4] = system: MCP-1 production in U937 cells; experiment: Cytokine release assay: MCP-1 production in U937 cells stimulated with IL-6; format: cell-based
Protocol: Selected compounds were tested in a cytokine release assay in monocytic cells (U937) to test their anti-inflammatory properties. Cells were plated in a 96-well cell culture plate using serum-free media. The cells were treated with indicated concentrations of SHP-2 inhibitors for 30 minutes followed by overnight stimulation with recombinant IL-6 (50 ng/mL). The MCP-1 production was measured in the culture supernatant using a MCP-1 AlphaLISA kit (Perkin Elmer).

[5] = target: Kv11.1 (hERG) ion channel (Homo sapiens (Human), UniProt Q12809); experiment: hERG patch clamp in Kv11.1 (hERG) transfected HEK293 cells; format: cell-based
Protocol: Inhibition of the ion channel hErg (or Kv11.1) current causes QT interval prolongation resulting in potentially fatal ventricular tachyarrhythmia called Torsade de Pointes.
hERG ion channel activity was assessed using a patch clamp technique in stable Kv11.1 (hERG) transfected human embryonic kidney cell line (HEK293). Whole cell recordings were carried out with an automated patch clamp device Patchliner™ from Nanion Technologies, Munich following manufacturer recommendation. Different concentrations of the test compound or reference, quinidine, were applied to whole cells suspension and current was measured using a pulse pattern with fixed amplitudes.

pERK1/2 in KYSE520 cells = experiment: p-Erk cellular assay in KYSE520 (Mesoscale); format: cell-based; conditions: Homo sapiens, KYSE-520, 2 h, read-out: pERK1/2 in Cell KYSE520 IC50
Protocol: The effect of SHP2 inhibitors on pERK level was assessed using phospho-specific antibody using Mesoscale quantification platform. For measuring change in pERK levels using mesoscale, 30,000 cells of KYSE520 cells were plated in 96-well tissue culture treated plate in 175 μl volume of media. After an overnight incubation at 37° C., various SHP2 inhibitors were added in different concentration to each well maintaining duplicate wells across plates and incubated with compounds for 2 h at 37° C. followed by a wash with ice cold PBS buffer. The cells were then lysed in lysis buffer and processed and analyzed for p-ERK/ERK as per manufacturer's instructions (Mesoscale discovery, cat No. […]-3).

[6] = 10, 30 or 100 mg/kg QD oral gavage
[7] = 0.8, 2.5 or 8 mg/kg QD oral gavage

Chain of Full length SHP2 protein (Recombinant Human SHP-2) (Q06124 2-593): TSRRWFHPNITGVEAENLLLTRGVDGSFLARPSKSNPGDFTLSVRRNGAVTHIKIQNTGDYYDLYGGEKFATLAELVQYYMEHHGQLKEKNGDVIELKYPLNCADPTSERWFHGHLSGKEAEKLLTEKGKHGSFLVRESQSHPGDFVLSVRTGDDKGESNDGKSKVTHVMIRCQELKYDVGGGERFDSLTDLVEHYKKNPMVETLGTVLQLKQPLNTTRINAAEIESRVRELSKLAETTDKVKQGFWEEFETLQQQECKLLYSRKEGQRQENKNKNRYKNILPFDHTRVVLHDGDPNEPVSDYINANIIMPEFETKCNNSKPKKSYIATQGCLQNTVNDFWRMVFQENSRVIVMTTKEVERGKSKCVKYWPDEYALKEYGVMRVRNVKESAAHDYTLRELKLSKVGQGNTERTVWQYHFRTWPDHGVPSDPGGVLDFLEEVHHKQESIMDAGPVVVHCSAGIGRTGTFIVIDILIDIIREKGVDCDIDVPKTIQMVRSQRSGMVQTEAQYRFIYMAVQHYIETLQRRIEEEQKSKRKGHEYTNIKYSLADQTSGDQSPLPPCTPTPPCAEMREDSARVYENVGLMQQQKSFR
Chain of auto-activated mutant protein SHP2 E76K (Q06124 whole entry E76K): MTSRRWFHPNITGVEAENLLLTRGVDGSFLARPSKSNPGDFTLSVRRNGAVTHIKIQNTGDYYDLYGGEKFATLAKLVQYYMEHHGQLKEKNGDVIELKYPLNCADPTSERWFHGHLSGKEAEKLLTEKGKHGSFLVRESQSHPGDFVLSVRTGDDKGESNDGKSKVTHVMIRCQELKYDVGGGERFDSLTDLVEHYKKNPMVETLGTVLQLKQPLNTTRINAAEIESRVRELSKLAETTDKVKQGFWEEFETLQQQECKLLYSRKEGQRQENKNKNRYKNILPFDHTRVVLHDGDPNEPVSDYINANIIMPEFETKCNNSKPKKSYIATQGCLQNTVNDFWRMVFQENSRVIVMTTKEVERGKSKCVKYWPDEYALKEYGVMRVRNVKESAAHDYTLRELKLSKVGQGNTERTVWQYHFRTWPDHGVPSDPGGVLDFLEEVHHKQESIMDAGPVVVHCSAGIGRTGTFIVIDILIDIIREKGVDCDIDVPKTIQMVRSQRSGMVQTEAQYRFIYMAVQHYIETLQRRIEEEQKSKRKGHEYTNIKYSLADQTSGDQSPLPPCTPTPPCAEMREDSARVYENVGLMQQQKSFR
Chain of Kv11.1 (hERG) ion channel (Q12809 whole entry): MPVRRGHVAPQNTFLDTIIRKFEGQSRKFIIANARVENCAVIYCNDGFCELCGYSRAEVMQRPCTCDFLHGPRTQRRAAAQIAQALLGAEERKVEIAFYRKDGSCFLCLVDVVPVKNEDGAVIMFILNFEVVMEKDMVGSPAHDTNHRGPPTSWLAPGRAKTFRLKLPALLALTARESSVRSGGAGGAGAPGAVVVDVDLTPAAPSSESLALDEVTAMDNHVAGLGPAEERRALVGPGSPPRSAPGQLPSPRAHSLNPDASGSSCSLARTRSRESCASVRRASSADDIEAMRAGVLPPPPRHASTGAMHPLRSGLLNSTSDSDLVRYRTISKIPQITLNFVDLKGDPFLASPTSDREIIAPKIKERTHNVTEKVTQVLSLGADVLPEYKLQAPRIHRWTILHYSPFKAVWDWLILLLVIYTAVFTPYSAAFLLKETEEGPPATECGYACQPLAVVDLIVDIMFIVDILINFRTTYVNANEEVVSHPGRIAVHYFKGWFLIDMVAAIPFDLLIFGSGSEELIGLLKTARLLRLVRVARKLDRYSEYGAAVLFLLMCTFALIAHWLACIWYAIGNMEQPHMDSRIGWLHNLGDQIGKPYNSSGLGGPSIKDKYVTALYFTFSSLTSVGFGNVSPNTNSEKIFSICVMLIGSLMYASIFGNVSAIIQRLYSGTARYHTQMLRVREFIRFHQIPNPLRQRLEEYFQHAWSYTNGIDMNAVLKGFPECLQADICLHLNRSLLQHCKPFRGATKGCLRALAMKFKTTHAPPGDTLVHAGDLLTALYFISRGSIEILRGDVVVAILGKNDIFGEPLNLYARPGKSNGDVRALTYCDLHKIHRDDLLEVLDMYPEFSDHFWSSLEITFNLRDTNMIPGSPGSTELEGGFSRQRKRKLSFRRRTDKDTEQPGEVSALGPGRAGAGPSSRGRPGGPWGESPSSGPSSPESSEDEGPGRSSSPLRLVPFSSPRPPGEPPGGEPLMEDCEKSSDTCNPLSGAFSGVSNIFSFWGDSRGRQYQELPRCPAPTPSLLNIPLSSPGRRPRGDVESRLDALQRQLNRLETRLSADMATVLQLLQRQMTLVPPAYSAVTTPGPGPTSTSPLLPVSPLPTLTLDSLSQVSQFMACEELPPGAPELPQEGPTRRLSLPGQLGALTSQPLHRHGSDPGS

Row | Structure (SMILES) | AUC ng/ml*h (normalized to 1 mp/k) [1] [ng·h/mL] | Cmax ng/mL (normalized to 1 mg/k) [1] [ng/mL] | Fz [1] [%] | IC50 [3] [nM] | further results
1 | Cc1c(N2CCC3(CC2)Oc2ccccc2[C@H]3N)nc(C)n(-c2cccc(Cl)c2Cl)c1=O (single isomer, unassigned) [Compound 81b] | 3270 | 450 | 48 |  | 
2 | Cc1c(N2CCC3(CC2)CO[C@@H](C)[C@H]3N)nc(C)n(-c2cccc(Cl)c2Cl)c1=O (single isomer, unassigned) [Compound 23b] | 1222 | 177 | 100 |  | tumor growth (U87-MG xenografts): reduces tumor size as compared to baseline; also recorded: Tumor regression; tolerability (MiaPaCa-2 xenografts): well tolerated; IC50 [2]: 12 µM; tolerability (HPAF-2 xenografts): well tolerated; tumor growth (HPAF-2 xenografts): Significant tumor inhibition; tolerability (EBC-1 xenografts): well tolerated; tumor growth (EBC-1 xenografts): reduces tumor growth; also recorded: Significant tumor growth inhibition; tolerability (KYSE-520 xenografts; [6]): well tolerated; tumor growth (KYSE-520 xenografts; [6]): reduce growth of the tumor a significant amount; also recorded: dose-dependent significant tumor growth inhibition
3 | Cc1c(N2C[C@H]3CC(CO)C[C@@]3(CN)C2)nc(C)n(-c2cccc(Cl)c2Cl)c1=O (stereo partly drawn) [Compound 101, (3M)-6-[(3aR,6aS)-3a-(aminomethyl)-5-(hydroxymethyl)-octahydrocyclopenta[c]pyrrol-2-yl]-3-(2,3-dichlorophenyl)-2,5-dimethyl-3,4-dihydropyrimidin-4-one] |  |  |  | 230 | 
4 | Cc1c(N2CCC3(CC2)Cc2ccccc2[C@H]3N)nc(C)n(-c2cccc(Cl)c2Cl)c1=O [Compound 74a, (3M)-6-[(1S)-1-amino-1,3-dihydrospiro[indene-2,4′-piperidin]-1′-yl]-3-(2,3-dichlorophenyl)-2,5-dimethyl-3,4-dihydropyrimidin-4-one] | 2108 | 129 | 100 | 1 | tolerability (KYSE-520 xenografts; [7]): well tolerated; tumor growth (KYSE-520 xenografts; [7]): reduce growth of the tumor a significant amount; also recorded: dose-dependent significant tumor growth inhibition
5 | Cc1c(N2CCC3(CCC[C@@H]3N)CC2)nc(N)n(-c2cccc(Cl)c2Cl)c1=O (atropisomer, axis not shown; (M)) [Compound 78c, (3M)-2-amino-6-[(1S)-1-amino-8-azaspiro[4.5]decan-8-yl]-3-(2,3-dichlorophenyl)-5-methyl-3,4-dihydropyrimidin-4-one] |  |  |  | 2100 | 
6 | Cc1c(N2CCC3(CC2)C[C@@H](C)C[C@H]3N)nc(C)n(-c2cccc(Cl)c2Cl)c1=O [Compound 77, (3M)-6-[(1R,3R)-1-amino-3-methyl-8-azaspiro[4.5]decan-8-yl]-3-(2,3-dichlorophenyl)-2,5-dimethyl-3,4-dihydropyrimidin-4-one] |  |  |  |  | MCP-1 production (FIG. 1) [4]: suppressed MCP-1 production
7 | C[C@@H]1OCC2(CCN(c3cc(=O)n(-c4cccc(Cl)c4Cl)c(C(F)F)n3)CC2)[C@@H]1N (atropisomer, axis not shown; (M)) [Compound 20b, (3M)-6-[(3S,4S)-4-amino-3-methyl-2-oxa-8-azaspiro[4.5]decan-8-yl]-3-(2,3-dichlorophenyl)-2-(difluoromethyl)-3,4-dihydropyrimidin-4-one] |  |  |  | 1100 | 
8 | Cc1c(N2CCC3(CC2)Cc2ccccc2[C@@H]3N)nc(C)n(-c2cccc(Cl)c2Cl)c1=O (atropisomer, axis not shown; (M)) [Compound 74c, (3M)-6-[(1R)-1-amino-1,3-dihydrospiro[indene-2,4′-piperidin]-1′-yl]-3-(2,3-dichlorophenyl)-2,5-dimethyl-3,4-dihydropyrimidin-4-one] |  |  |  | 250 | 
9 | Cc1nc(N2CCC3(CC2)CO[C@@H](C)[C@H]3N)cc(=O)n1-c1cccc(Cl)c1Cl (single isomer, unassigned) [Compound 3b] | 1765 | 223 | 85 |  | 
10 | Cc1c(N2CCC3(CCC[C@H]3N)CC2)nc(C)n(-c2cccc(Cl)c2Cl)c1=O (single isomer, unassigned) [Compound 67a] |  |  |  | 19000 | 
11 | Cc1c(N2CCC3(CC2)Cc2ncccc2[C@H]3N)nc(C)n(-c2cccc(Cl)c2Cl)c1=O (single isomer, unassigned) [Compound 66b] | 2387 | 367 | 100 |  | Split between hErg and cell activity Ki (patch Clamp)/IC50 (KYSE) [5]: 580
12 | Cc1c(N2CCC3(CC2)Oc2cnccc2C3N)nc(C)n(-c2cccc(Cl)c2Cl)c1=O (single isomer, unassigned) [Compound 80c] |  |  |  |  | IC50 (pERK1/2 in KYSE520 cells): 420 nM
13 | Cc1nc(N2CCC3(CC2)CO[C@@H](C)[C@H]3N)c(CO)nc1-c1cccc(Cl)c1Cl [RMC-4550, reference compound] | 735 | 85 | 86 |  | tumor growth (HPAF-2 xenografts): Significant tumor inhibition
14 | Cc1c(N2CCC3(CC2)c2ncccc2C[C@H]3N)nc(C)n(-c2cccc(Cl)c2Cl)c1=O [Compound 75, (3M)-6-[(6R)-6-amino-5,6-dihydrospiro[cyclopenta[b]pyridine-7,4′-piperidin]-1′-yl]-3-(2,3-dichlorophenyl)-2,5-dimethyl-3,4-dihydropyrimidin-4-one] |  |  |  | 120 | IC50 (pERK1/2 in KYSE520 cells): 824 nM
15 | Cc1c(N2CCC3(CCC[C@H]3N)CC2)nc(C)n(-c2cccc(Cl)c2Cl)c1=O (single isomer, unassigned) [Compound 67b] |  |  |  |  | IC50 (pERK1/2 in KYSE520 cells): 198 nM
